Results taken from patent US20200325156A1, “HETEROARYL AMIDE COMPOUNDS, PREPARATION METHOD THEREFOR, PHARMACEUTICAL COMPOSITIONS THEREOF, AND APPLICATIONS THEREOF” (Rui Jin Hospital Affiliated to Shanghai Jiao Tong …, priority 2017, published 2020).

How the values were obtained:
Type in all cases: cell-based
[1] = test system: human liver cancer cells HepG-2; experiment: MTS cell growth inhibition, HepG-2; conditions: 48 h; for inhibition at 10 µM: HepG2, compound concentration 10 μM, read-out: Inhibition rate against HepG-2 at 10 μM (%); for IC50: HepG2, growth inhibition
Description: (§1) 1) Medium: DMEM (Dulbecco's modified eagle medium) or RPMI1640 (containing 10% fetal bovine serum, 100 μg/mL ampicillin, 100 μg/mL streptomycin).
(§2) 2) Reagent: MTS reaction solution (containing 2 mg/mL of MTS (3-(4,5-dimethylthiazol-2-yl)-5-(3-carboxymethoxyphenyl)-2-(4-sulfophenyl)-2H-tetrazolium, inner salt); 100 μg/mL PES ([…])).
(§3) Human promyelocytic leukemia cells HL-60 (2×10^4 cells/well) cultured in vitro were incubated into a 96-well culture plate, the volume of cell-culture medium was 90 μL, and then 10 μL of the compound at each gradient concentration was added (the highest concentration was 10 μM, which was diluted stepwise by ⅓, and 8 concentration points were set in total; the system contained 0.1% DMSO (dimethyl sulfoxide)). The cell plate with uniformly mixed compound was cultured in a cell culture incubator (37° C.; 5% CO2) for 48 h, then 20 μμL of MTS reaction solution was added, uniformly mixed and incubated in the cell culture incubator (37° C.; 5% CO2) for 1-4 hr; OD values at 490 nm were measured by a microplate reader (VARIOSKAN FLASH, Thermo). Three parallels were set in each group of experiments, with 0.1% (a final concentration) DMSO as a negative control, and a medium without cells and compounds as a blank control. The cell growth inhibition rate was calculated by the following formula:
(§4) Cell growth inhibition rate%=1−(ODexperimental group−ODblank group)/(ODnegative group−ODblank group)×100%
(§5) 4) IC50 calculation: The semi-inhibitory concentration of the compound acting on cell was calculated using GradPad Prism 5 software according to the measured cell growth inhibition rate.
(§6) Human lung cancer cells A549, human gastric cancer cells BGC-823, human liver cancer cells HepG-2 and human breast cancer cells MCF-7, human osteosarcoma cells U2OS, human prostate cancer cells LNCAP cultured in vitro were added in a 96-well culture plate at 1,000-10,000 cells/well, incubated until adherence, and then the compound was added. As to other procedures, please refer to the method (1) above.

[2] = test system: Human promyelocytic leukemia cells HL-60; experiment: MTS cell growth inhibition, HL-60; conditions: for inhibition at 10 µM / IC50: Homo sapiens, HL-60, 48 h, MTS; for inhibition at 10 µM: compound concentration 10 μM, read-out: Inhibition rate against HL-60 at 10 μM (%); for IC50: growth inhibition; for growth inhibitory activity on HL-60 (in words): summary of Tables 3 and 4
Description: as §1, §2, §3, §4, §5

[3] = test system: Human lung cancer cells A549; experiment: MTS cell growth inhibition, A549; conditions: compound concentration 10 μM, 48 h, MTS, read-out: Inhibition rate against A549 at 10 μM (%)
Description: as §1, §2, §3, §4, §5, §6

[4] = test system: human osteosarcoma cells U2OS; experiment: MTS cell growth inhibition, U2OS; conditions: for inhibition at 10 µM / IC50: Homo sapiens, U2OS, 48 h, MTS; for inhibition at 10 µM: compound concentration 10 μM, read-out: Inhibition rate against U2OS at 10 μM (%); for IC50: growth inhibition; for growth inhibitory activity on U2OS (in words): summary of Tables 3 and 4
Description: as §1, §2, §3, §4, §5, §6

[5] = test system: human prostate cancer cells LNCAP; experiment: MTS cell growth inhibition, LNCAP; conditions: for inhibition at 10 µM / IC50: Homo sapiens, LNCaP, 48 h, MTS; for inhibition at 10 µM: compound concentration 10 μM, read-out: Inhibition rate against LNCAP at 10 μM (%); for IC50: growth inhibition; for growth inhibitory activity on LNCAP (in words): summary of Tables 3 and 4
Description: as §1, §2, §3, §4, §5, §6

[6] = test system: human gastric cancer cells BGC-823; experiment: MTS cell growth inhibition, BGC-823; conditions: 48 h; for inhibition at 10 µM: compound concentration 10 μM, read-out: Inhibition rate against BGC-823 at 10 μM (%); for IC50: growth inhibition
Description: as §1, §2, §3, §4, §5, §6

[7] = test system: human breast cancer cells MCF-7; experiment: MTS cell growth inhibition, MCF-7; conditions: MCF7, compound concentration 10 μM, 48 h, read-out: Inhibition rate against MCF-7 at 10 μM (%)
Description: as §1, §2, §3, §4, §5, §6

Row | IC50 [1] | IC50 [2] | IC50 [4] | IC50 [5] | IC50 [6] | Structure (SMILES) | inhibition at 10 µM [1] | inhibition at 10 µM [2] | inhibition at 10 µM [3] | inhibition at 10 µM [4] | inhibition at 10 µM [5] | inhibition at 10 µM [6] | inhibition at 10 µM [7] | growth inhibitory activity on HL-60 (in words) [2] | growth inhibitory activity on U2OS (in words) [4] | growth inhibitory activity on LNCAP (in words) [5]
1 | 1980 nM | 217 nM | 929 nM | 319 nM | 582 nM | O=C(Nc1ccc(OC(F)(F)F)cc1)c1cc2scnc2[nH]1 [Compound I-6] | 66.5% | 69.1% | 6.3% | 56.2% | 55.8% | 64.5% | 3.4% |  |  | 
2 |  | 1780 nM | 6350 nM | 6040 nM |  | COC(=O)c1ccc(NC(=O)c2cc3scnc3[nH]2)cc1 [Compound I-8] | 58.1% | 69.4% | 56.8% | 50.9% |  | 72.2% | 21.2% |  |  | 
3 | 1470 nM | 653 nM | 1510 nM | 5260 nM | 849 nM | O=C(Nc1ccc(C(F)(F)F)cc1)c1cc2scnc2[nH]1 [Compound I-11] | 62.9% | 71.2% | 7.6% | 56.2% | 56.1% | 58.8% | 7.4% |  |  | 
4 | 223 nM | 590 nM | 1520 nM | 6310 nM | 952 nM | COc1ccc(NC(=O)c2cc3scnc3[nH]2)cc1 [Compound I-12] | 58.3% | 68.9% | 9.3% | 57.7% | 54.6% | 47.4% | 5.9% |  |  | 
5 | 1930 nM | 1300 nM | 2680 nM | > 10000 nM | 1110 nM | CN(C)c1ccc(NC(=O)c2cc3scnc3[nH]2)cc1 [Compound I-13] | 54.7% | 69.7% | 3.4% | 53.2% | 48.6% | 54.3% | < 0% |  |  | 
6 |  | 2710 nM | > 10000 nM | > 10000 nM |  | CCN(CC)c1ccc(NC(=O)c2cc3scnc3[nH]2)cc1 [Compound I-15] | 57.8% | 63.2% | 69.4% | 53.5% |  | 71.7% | 23.8% |  |  | 
7 |  |  |  |  |  | O=C(Nc1ccc([N+](=O)[O-])cc1)c1cc2scnc2[nH]1 [Compound I-16] | 38.6% | 44.6% | 32.4% | 40.2% | 58% | 63.3% | 17.6% |  |  | 
8 |  | 672 nM | 3660 nM | 2570 nM |  | O=C(NCc1ccccc1-c1ccncc1)c1cc2scnc2[nH]1 [Compound I-22] | 48.9% | 65.2% | 54.8% | 50% | 64.3% | 64.6% | 15.1% |  |  | 
9 |  | 475 nM | 2920 nM | 1580 nM |  | O=C(NCc1ccccc1-c1cccnc1)c1cc2scnc2[nH]1 [Compound I-23] | 60.4% | 70.5% | 53.4% | 56% | 64.4% | 71.1% | 27% |  |  | 
10 |  | 2300 nM | 2750 nM | 849 nM |  | O=C(NCc1ccccc1-c1ccsc1)c1cc2scnc2[nH]1 [Compound I-24] | 38.2% | 64.3% | 20.1% | 37.6% | 48.7% | 51.2% | 31.5% |  |  | 
11 |  | 3210 nM | 6170 nM | 163 nM |  | O=C(NCc1ccccc1-c1ccco1)c1cc2scnc2[nH]1 [Compound I-26] | 29.7% | 64.8% | < 0% | 44.5% | 44.9% | 23.4% | 3.1% |  |  | 
12 |  | 0.012 nM | 6 nM | 32 nM |  | O=C(NCc1ccccc1-c1ccoc1)c1cc2scnc2[nH]1 [Compound I-27] | 43.2% | 68.8% | 67.9% | 44.9% |  | 55.1% | 1.7% | relatively good growth inhibitory activity | relatively good growth inhibitory activity | relatively good growth inhibitory activity
13 |  | 5 nM | 928 nM | 130 nM |  | O=C(NCc1ccccc1-c1cc2ccccc2o1)c1cc2scnc2[nH]1 [Compound I-28] | 44.4% | 74.8% | 50.3% | 48.7% | 71% | 60.3% | 21% | relatively good growth inhibitory activity | relatively good growth inhibitory activity | relatively good growth inhibitory activity
14 |  | 491 nM | 8920 nM | 2600 nM |  | CSc1ccc(OCc2cccc(NC(=O)c3cc4scnc4[nH]3)c2)cc1 [Compound I-31] | 18.5% | 71.8% | < 0% | 54.9% | 59.3% | 20.4% | 13.9% |  |  | 
15 |  | 1850 nM | 5470 nM | 7030 nM |  | CS(=O)(=O)c1ccc(OCc2cccc(NC(=O)c3cc4scnc4[nH]3)c2)cc1 [Compound I-32] | < 0% | 70.3% | < 0% | 45.2% | 41.5% | 9.2% | < 0% |  |  | 
16 |  | 7030 nM | 7850 nM | 4740 nM |  | Cc1cn(-c2cc(NC(=O)c3cc4scnc4[nH]3)cc(C(F)(F)F)c2)cn1 [Compound I-35] | 50.5% | 80.4% | 59.5% | 42.2% | 61.9% | 44.4% | < 0% |  |  | 
